Assay results as given in ChEMBL document CHEMBL1153721, “Isohalitulin and haliclorensins B and C, three marine alkaloids from Haliclona tulearensis” (J Nat Prod, 2010).

Assay: Toxicity against Artemia salina
Type: organism-based
Conditions: in vivo, read-out: LD50 (the source's name)

SMILES	LC50 [mM]
C[C@H]1CCCCCCCN2C=[N+](CCC2)C1 [HALICLORENSIN B]	2.2
C[C@H]1CCCCCCCCCCCCCNC1 [HALICLORENSIN C]	2.1
C[C@H]1CCCCCCCN(CCCn2cc(-c3c(O)c(O)cc4ncccc34)c(-c3c(O)c(O)cc4ncccc34)c2)C1 [ISOHALITULIN]	0.9
